Drawing on patent US10287276B2, “Heteroaryl-1,2,4-triazole and heteroaryl-tetrazole compounds for controlling ectoparasites” (Elanco Tiergesundheit AG, priority 2016, dated 2019), this text covers pest or weed control and EC50 for nine compounds.

Assay [1] has as its system Ctenocephalides Felis (Cat Flea). The experiment in a line: Activity in vitro against Ctenocephalides felis (cat flea), Assay B. The settings on record: % mortality at 48 hours post infestation; for pest or weed control at 10 ppm: Ctenocephalides felis, at 10 ppm in bovine blood, read-out: efficacy (EC50). As for the experimental part: Activity In Vitro Against Ctenocephalides Felis (Cat Flea)—Assay B
Test compounds are added to organic bovine blood contained in an artificial feeding container. Compounds with known insecticidal activity are included to serve as positive controls. Newly emerged unfed adult fleas from a laboratory colony are aspirated into each vial. The test cages are maintained using the artificial feeding apparatus to allow ingestion of compound. Fleas are evaluated for % mortality at 48 hours post infestation. Fleas showing normal movement and/or jumping ability are considered viable and those showing no movement are scored as dead.

Assay [2] concerns Lucilla Cuprina (Australian Sheep Blowfly). The experiment in a line: Activity in vitro against Lucilla cuprina (Australian sheep blowfly), Assay B. Also noted: species or system L. cuprina. The settings on record: larvae, percent mortality at 24 hours; for pest or weed control at 10 ppm: Lucilia cuprina, compound in bovine serum, read-out: efficacy (EC50). As for the experimental part:
Activity In Vitro Against Lucilla Cuprina (Australian Sheep Blowfly)—Assay B
Compound formulated in bovine serum is dispensed into scintillation. A dental cotton roll is added to each vial to absorb the compound solution. L. cuprina larvae are added to each treatment vial. The vials are capped and held for 24 hours in an environmental chamber at appropriate temperature, humidity and light/dark cycles. Evaluations are only made at 24 hours because dead larvae after 24 hours may be cannibalized by the remaining live ones. Vials are examined for percent mortality.

The test system of assay [3] is Rhipicephalus sanguineus (Dog Tick). The experiment in a line: Activity in vitro against Rhipicephalus sanguineus (dog tick), Assay B, coated glass vials. The following applies: contact with coated vials, assessment at 48 hours; for pest or weed control at 20 ppm: Rhipicephalus sanguineus, read-out: efficacy (EC50). The method, then: Activity In Vitro Against Rhipicephalus sanguineus (Dog Tick)—Assay B
A solution of the test compounds is used to coat the inner wall of glass vials containing a filter paper on the bottom of each vial. A second filter paper is also coated and placed in the cap of the vial. Vials and caps are allowed to dry overnight. Each treated vial is infested with ticks. Contact of the ticks with residues is induced by holding the vials in a controlled environment and assessment is performed at 48 hours after application in comparison with untreated glass vials and solvent-treated glass vials.

For `C[C@@H](c1ncnn1-c1ncccn1)N(CC1CC1)C(=S)c1cc(C(F)(F)F)cc(C(F)(F)F)c1` [Example 70], the pest or weed control at 10 ppm in assay [1] and in assay [2] was above 50% throughout. Moreover, in assay [3], the pest or weed control at 20 ppm was above 50%.

Consider `Cc1nc(C(C)N(CC2CC2)C(=O)c2cc(C(F)(F)F)cc(C(F)(F)F)c2)n(-c2ncccn2)n1` (stereo not drawn) [Example 61, N-(Cyclopropylmethyl)-N-[1-(5-methyl-2-pyrimidin-2-yl-1,2,4-triazol-3-yl)ethyl]-3,5-bis(trifluoromethyl)benzamide], for which the pest or weed control at 10 ppm in assay [1] and in assay [2] was above 50% in each case. Also, in assay [3], the pest or weed control at 20 ppm is above 50%.

Turning to `CC(c1ncnn1-c1ncccn1)N(C)C(=O)c1cc(C(F)(F)F)cc(C(F)(F)F)c1` (stereo not drawn) [Example 65, N-Methyl-N-[1-(2-pyrimidin-2-yl-1,2,4-triazol-3-yl)ethyl]-3,5-bis(trifluoromethyl)benzamide], the pest or weed control at 10 ppm in assay [1] and in assay [2] was above 50% each time. Moreover, the pest or weed control at 20 ppm in assay [3] is above 50%.

As to `C[C@@H](c1ncnn1-c1ncccn1)N(C)C(=O)c1cc(C(F)(F)F)cc(C(F)(F)F)c1` [Example 75, N-Methyl-N-[(1S)-1-(2-pyrimidin-2-yl-1,2,4-triazol-3-yl)ethyl]-3,5-bis(trifluoromethyl)benzamide], the pest or weed control at 10 ppm in assay [1] and in assay [2] was above 50% in each case. The pest or weed control at 20 ppm in assay [3] was above 50%.

As to `CCN(C(=O)c1cc(C#N)cc(C(F)(F)F)c1)C(C)c1ncnn1-c1ncccn1` (stereo not drawn) [Example 59, 3-Cyano-N-ethyl-N-[1-(2-pyrimidin-2-yl-1,2,4-triazol-3-yl)ethyl]-5-(trifluoromethyl)benzamide], in assay [1], the EC50 was found to be 1.6 ppm and the pest or weed control at 10 ppm was above 50%. Also, in assay [2], the pest or weed control at 10 ppm was above 50% and the EC50 was 0.77 ppm. Besides, in assay [3], the pest or weed control at 20 ppm is above 50% and the EC50 was 14 ppm.

Regarding `C#CCN(C(=O)c1cc(C#N)cc(C(F)(F)F)c1)C(C)c1ncnn1-c1ncccn1` (stereo not drawn) [Example 58, 3-Cyano-N-prop-2-ynyl-N-[1-(2-pyrimidin-2-yl-1,2,4-triazol-3-yl)ethyl]-5-(trifluoromethyl)benzamide], the pest or weed control at 10 ppm in assay [1] and in assay [2] was above 50% each time. In assay [3], the pest or weed control at 20 ppm is above 50%.

For `CC(NC(=O)c1cc(C(F)(F)F)cc(C(F)(F)F)c1)c1ncnn1-c1ncccn1` (stereo not drawn) [Example 63, N-[1-(2-Pyrimidin-2-yl-1,2,4-triazol-3-yl)ethyl]-3,5-bis(trifluoromethyl)benzamide], the pest or weed control at 10 ppm in assay [1] and in assay [2] was above 50% each time. In assay [3], the pest or weed control at 20 ppm is above 50%.

Take `CC(c1ncnn1-c1ncccn1)N(C[Si](C)(C)C)C(=O)c1cc(C(F)(F)F)cc(C(F)(F)F)c1` (stereo not drawn) [Example 67, N-[1-(2-pyrimidin-2-yl-1,2,4-triazol-3-yl)ethyl]-3,5-bis(trifluoromethyl)-N-(trimethylsilylmethyl)benzamide]: the pest or weed control at 10 ppm in assay [1] and in assay [2] was above 50% in each case. For the same compound, the pest or weed control at 20 ppm in assay [3] was above 50%.

`CC(c1ncnn1-c1ncccn1)N(CC1CC1)C(=O)c1cc(C#N)cc(C(F)(F)F)c1` (stereo not drawn) [Example 50, 3-Cyano-N-(cyclopropylmethyl)-N-[1-(2-pyrimidin-2-yl-1,2,4-triazol-3-yl)ethyl]-5-(trifluoromethyl)benzamide]: the pest or weed control at 10 ppm in assay [1] and in assay [2] was above 50% each time. The pest or weed control at 20 ppm in assay [3] was above 50%.
